The source of these data is PMC5991599, “Anti‐tumor efficacy of a novel CLK inhibitor via targeting RNA splicing and MYC‐dependent vulnerability” (EMBO Molecular Medicine, 2018).

Assay [1] concerns MYC-inducible SK-MEL-28 cells. The assay can be described thus: Growth inhibition in MYC-inducible SK-MEL-28 cells. In kind it is cell-based. The settings on record: Homo sapiens, read-out: IC50 (nmol/L) (95% CI). The protocol: To obtain an MYC‐inducible cell line, SK‐MEL‐28 cells were engineered via stable lentiviral transduction to express an empty pTRIPZ vector (Open Biosystems/GE Healthcare Dharmacon Inc., Lafayette, CO, USA) or a Tet‐inducible promoter‐driven MYC gene. Infected cells were selected with geneticin for 4 days, left to recover for 24 h, and treated with 0.5 μg/ml Dox (Sigma‐Aldrich, St. Louis, MO, USA). U2OS cells were similarly engineered to express an empty pBABE vector (Cell Biolabs, Inc., San Diego, CA, USA) or a MYC‐estrogen receptor (MYC‐ER) transgene via 3 days of puromycin selection followed by treatment with 0.5 μmol/l tamoxifen (Sigma‐Aldrich).
Silencer Select Pre-designed siRNAs purchased from Ambion (Thermo Fisher
Scientific) were used. The siRNA ID# and sequence are shown below: […]
Cell proliferation assay, Caspase-3/7 assay
Cell proliferation was measured using CellTiter-Glo luminescent cell viability
assay (Promega, Fitchburg, WI, U.S.A.). Caspase-3/7 activity was measured using
Caspase-Glo 3/7 Assay Systems (Promega). Luminescence of each well was measured
using ARVO Light (PerkinElmer Inc., Waltham, MA, U.S.A.). The IC50 value and 95%
confidential intervals were estimated using GraphPad Prism 5 (GraphPad Software,
Inc., La Jolla, CA, U.S.A.). […]

Another assay deals with DYRK1B (Homo sapiens, UniProt Q9Y463). More on the design: method as in Funnell et al, 2017. The settings on record: enzymatic assay; ref Funnell et al, 2017; read-out: IC50 (nmol/L) DYRK1B; cited from earlier work.
Sequence of DYRK1B (Q9Y463 whole entry): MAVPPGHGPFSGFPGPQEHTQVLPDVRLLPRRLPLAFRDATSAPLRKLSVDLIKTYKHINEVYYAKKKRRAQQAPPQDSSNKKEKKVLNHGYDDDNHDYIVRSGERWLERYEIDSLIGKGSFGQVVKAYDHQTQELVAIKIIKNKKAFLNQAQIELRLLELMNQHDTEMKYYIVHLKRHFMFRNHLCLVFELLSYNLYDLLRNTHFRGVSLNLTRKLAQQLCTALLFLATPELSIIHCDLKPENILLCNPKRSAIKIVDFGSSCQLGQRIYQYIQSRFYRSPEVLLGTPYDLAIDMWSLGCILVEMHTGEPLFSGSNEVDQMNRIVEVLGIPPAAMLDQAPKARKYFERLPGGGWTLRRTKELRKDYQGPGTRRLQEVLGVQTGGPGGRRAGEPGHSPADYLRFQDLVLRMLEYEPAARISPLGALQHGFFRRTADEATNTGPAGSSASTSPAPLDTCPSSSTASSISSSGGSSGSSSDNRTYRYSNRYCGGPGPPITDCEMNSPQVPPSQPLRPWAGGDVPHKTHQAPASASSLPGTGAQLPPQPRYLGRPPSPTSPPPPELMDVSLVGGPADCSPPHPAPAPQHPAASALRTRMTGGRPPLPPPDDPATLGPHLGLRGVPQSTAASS
The next assay concerns the target CLK1 (Homo sapiens, UniProt P49759). On the set-up: method as in Funnell et al, 2017. The settings on record: enzymatic assay; ref Funnell et al, 2017; read-out: IC50 (nmol/L) CLK1; cited from earlier work.
A further assay has as its system HCT116 cells. The assay is described as follows: Modulation of the 125 T-025-dependent skipped exons (RNA-Seq, MISO). The format is cell-based. Particulars: |ΔPSI| > 0.4, T3 AS events from Funnell et al, 2017. The protocol:
The RNA‐Seq was performed at Takara Bio Inc. (Shiga, Japan) or Macrogen, Inc. (Seoul, South Korea) by using HiSeq2000 or HiSeq4000 (Illumina Inc., San Diego, CA, USA). Splicing bioinformatics analysis using MISO and pathway analysis using Cytoscape (Shannon et al, 2003) were performed as previously described (Funnell et al, 2017). Briefly, the BAM alignment files produced by TopHat and the files for AS events (for hg19) provided by MISO were used as inputs. […] For clustering, we used 1,320 splicing events with ΔPSI > 0.4, the BF > 20, and SD of PSI for each splicing event > 0.2. Hierarchical clustering was performed using heatmap3 from the R package.

The target of another assay is T1, DYRK1A (Homo sapiens, UniProt Q13627).
T1 construct: purchased DiscoverX Corporation (Fremont, CA, USA)
More on the design: method as in Funnell et al, 2017. The settings on record: enzymatic assay; ref Funnell et al, 2017; read-out: IC50 (nmol/L) DYRK1A; cited from earlier work.

Molecules are shown by their SMILES. Like-named read-outs stand apart in the source and are kept apart here.

Sequence of CLK1 (P49759 whole entry): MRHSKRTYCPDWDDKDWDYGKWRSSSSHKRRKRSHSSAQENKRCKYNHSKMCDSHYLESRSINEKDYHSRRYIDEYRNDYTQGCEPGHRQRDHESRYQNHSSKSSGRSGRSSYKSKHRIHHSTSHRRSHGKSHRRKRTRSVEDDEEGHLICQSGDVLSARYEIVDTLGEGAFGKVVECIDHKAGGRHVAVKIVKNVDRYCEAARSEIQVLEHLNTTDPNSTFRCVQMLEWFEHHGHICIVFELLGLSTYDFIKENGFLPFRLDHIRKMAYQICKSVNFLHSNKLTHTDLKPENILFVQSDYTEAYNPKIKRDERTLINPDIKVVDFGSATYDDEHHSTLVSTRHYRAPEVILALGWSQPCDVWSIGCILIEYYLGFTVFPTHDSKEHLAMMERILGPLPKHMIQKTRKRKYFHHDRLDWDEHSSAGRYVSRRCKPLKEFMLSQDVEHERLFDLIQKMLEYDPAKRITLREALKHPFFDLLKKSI

Turning to `CN1CCN(C(=O)C(C)(C)c2ccc(C(=O)Nc3cn4cc(-c5ccncc5)ccc4n3)cc2)CC1` [T3], the IC50 in assay [1] (SK-MEL-28, 72 h, myc - Dox) is 471 nmol/L; in assay [1] (SK-MEL-28, 72 h, vector - Dox), 459 nmol/L; in assay [1] (SK-MEL-28, myc + Dox (48 h pretreatment), 72 h), 294 nmol/L; in assay [1] (SK-MEL-28, vector + Dox (48 h pretreatment), 72 h) it was 471 nmol/L; on DYRK1B, 260 nmol/L; at CLK1, 0.63 nmol/L. Moreover, the IC50 at DYRK1A is 230 nmol/L. Further, the “share of the 125 T-025-dependent SEs also changed” value with HCT116 cells (T3 at 500 nmol/l) is 58.4%; in the assay on HCT116 cells (T3 at 1,000 nmol/l), 77.6%.
